Laboratory results: patent publication US20240116933A1, “INDAZOLE AND PYRAZOLOPYRIDINE COMPOUNDS AS INHIBITORS OF NLRP3 INFLAMMASOME” (BioAge Labs, Inc., priority 2022, published 2024)
pIC50: −log10 of the molar value.

Biological target: T1, NLRP3 inflammasome (Homo sapiens, UniProt Q96P20)
T1 construct: endogenous in cells; host or cells: THP-1 cells (PMA-differentiated, LPS-primed, nigericin-stimulated)
Assay: THP-1 Cell-Based NLRP3 Activation Assay
Details: THP-1 cells, PMA, 100 ng/mL LPS 3 hrs, 30 min pre-incubation with test compound, 10 μM nigericin 1 hr
Description: THP-1 cells are cultured in complete media (CM) until they reach logarithmic growth and achieve a viability >90%. CM is composed of RPMI-1640 (+Glutamax)/10% fetal bovine serum/55 μM β-mercaptoethanol/pen/strep. Cells are spun down and resuspended to 1,000,000 cells/mL in CM containing either 20 nM or 500 nM PMA. 150,000 cells […] are then added to each well of a 96-well TC plate and incubated for either 24 hr or 3 hr, respectively, in a standard cell culture incubator (37° C.; 5% CO2). After this incubation, the plate is tilted and media carefully removed. 200 μL of CM containing 100 ng/mL LPS is then added to the wells and the cells incubated an additional 3 hrs. The media is again removed and replaced with Opti-Mem medium containing pre-determined dilutions of test compounds in replicate wells. After a 30 min pre-incubation with test compound, 10 μM nigericin (final concentration) in Opti-Mem medium with the corresponding concentration of compound is added to the wells for an additional 1 hr. Positive control wells contain 10 μM nigericin in Opti-Mem in the absence of test compound, while negative control wells contain Opti-Mem only. […] Once supernatants are removed, the relative viability of adherent cells in the 96-well TC plate are determined using a CellTiter-Glo® luminescent cell viability assay (Promega).

T1 sequence (Q96P20 whole entry): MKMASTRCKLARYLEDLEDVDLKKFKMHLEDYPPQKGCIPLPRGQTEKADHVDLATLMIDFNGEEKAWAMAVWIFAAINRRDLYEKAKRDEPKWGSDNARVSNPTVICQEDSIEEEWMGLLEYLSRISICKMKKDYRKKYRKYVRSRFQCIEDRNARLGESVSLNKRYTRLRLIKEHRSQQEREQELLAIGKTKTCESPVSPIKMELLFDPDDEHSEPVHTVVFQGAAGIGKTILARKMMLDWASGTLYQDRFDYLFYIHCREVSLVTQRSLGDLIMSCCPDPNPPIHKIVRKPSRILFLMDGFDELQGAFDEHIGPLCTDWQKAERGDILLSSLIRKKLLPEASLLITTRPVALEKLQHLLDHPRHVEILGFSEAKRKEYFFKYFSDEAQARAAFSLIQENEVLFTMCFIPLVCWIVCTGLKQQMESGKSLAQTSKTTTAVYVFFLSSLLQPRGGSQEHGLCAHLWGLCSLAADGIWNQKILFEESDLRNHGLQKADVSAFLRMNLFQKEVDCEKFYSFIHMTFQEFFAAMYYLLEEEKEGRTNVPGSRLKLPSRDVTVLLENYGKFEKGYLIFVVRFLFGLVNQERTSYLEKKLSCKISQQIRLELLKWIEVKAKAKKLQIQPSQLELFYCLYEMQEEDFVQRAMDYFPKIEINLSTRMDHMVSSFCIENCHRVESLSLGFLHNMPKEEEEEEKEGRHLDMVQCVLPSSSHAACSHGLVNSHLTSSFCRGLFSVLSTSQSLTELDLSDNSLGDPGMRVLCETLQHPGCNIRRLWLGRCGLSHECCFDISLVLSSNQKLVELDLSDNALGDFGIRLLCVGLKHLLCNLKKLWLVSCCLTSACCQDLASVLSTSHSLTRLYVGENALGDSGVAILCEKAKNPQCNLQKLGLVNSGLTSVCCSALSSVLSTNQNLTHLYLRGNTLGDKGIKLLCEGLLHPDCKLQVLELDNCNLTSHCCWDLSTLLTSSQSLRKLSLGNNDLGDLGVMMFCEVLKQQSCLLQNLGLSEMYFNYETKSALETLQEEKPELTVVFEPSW

`CCOc1cc(C(=O)N(C)[C@H](C)c2c(C)ncc3cn[nH]c23)ccc1-c1cccc(F)c1` [Compound 044] and `CCOc1cc(C(=O)N(C)[C@H](C)c2cnc(C)c3cn[nH]c23)ccc1-c1cccc(F)c1` [Compound 050] cannot be ordered by pIC50: over 4.30 for the first, over 6.00 for the second.

`CCOc1cc(C(=O)N(C)Cc2cnc(CO)c3cn[nH]c23)cc(Cl)c1-c1cccc(F)c1` [Compound 175] and `CN(Cc1cnc(CO)c2cn[nH]c12)C(=O)c1cc(Cl)c(-c2cccc(F)c2)c(OC2CC2)c1` [Compound 162] cannot be ordered by pIC50: over 5.00 for the first, over 6.00 for the second.

`CCOc1cc(C(=O)N(C)Cc2cnc(C(O)C(F)(F)F)c3cn[nH]c23)ccc1-c1cccc(F)c1` (stereo not shown) [Compound 171] and `CCOc1cc(C(=O)N(C)Cc2cnc(C(C)O)c3cn[nH]c23)ccc1-c1cccc(Cl)c1` (stereo not shown) [Compound 030] cannot be ordered by pIC50: over 6.00 for the first, over 6.00 for the second.

`CCOc1cc(C(=O)N(C)Cc2cccc3cn[nH]c23)sc1-c1cccc(F)c1` [Compound 121] and `CCOc1cc(C(=O)N(C)Cc2cccc3[nH]ncc23)ccc1-c1cccc(F)c1` [Compound 129] cannot be ordered by pIC50: over 6.00 for the first, over 5.00 for the second.

`CCOc1cc(C(=O)N(C)Cc2cnc(C(C)O)c3cn[nH]c23)ccc1-c1nccs1` (stereo not shown) [Compound 149] and `CCOc1cc(C(=O)N(C)Cc2cnc(C(C)O)c3cn[nH]c23)ccc1-c1nc(Cl)cs1` (stereo not shown) [Compound 158] cannot be ordered by pIC50: over 5.00 for the first, over 6.00 for the second.

`Cc1ncc([C@H](C)N(C)C(=O)c2cc(F)c(-c3cccc(F)c3)c(OC3CC3)c2)c2[nH]ncc12` [Compound 035] and `Cc1ncc2cn[nH]c2c1CN(C)C(=O)c1cc(F)c(-c2cccc(F)c2)c(OC2CC2)c1` [Compound 062] cannot be ordered by pIC50: over 6.00 for the first, over 6.00 for the second.

`CN(Cc1cnc(CO)c2cn[nH]c12)C(=O)c1ccc(-c2cc(F)cc(Cl)c2)c(OC2COC2)c1` [Compound 152] and `CN(Cc1cnc(CO)c2cn[nH]c12)C(=O)c1ccc(-c2cccc(F)c2)c(OC2COC2)c1` [Compound 151] cannot be ordered by pIC50: over 6.00 for the first, over 5.00 for the second.

`CC(C)Oc1cc(C(=O)N(C)Cc2cnc(CO)c3cn[nH]c23)ccc1-c1cc(F)cc(F)c1` [Compound 142] and `CC(C)Oc1cc(C(=O)N(C)Cc2cnc(C(C)O)c3cn[nH]c23)ccc1-c1cc(F)cc(F)c1` (stereo not shown) [Compound 146] cannot be ordered by pIC50: over 6.00 for the first, over 6.00 for the second.

`CCOc1cc(C(=O)N(C)Cc2ccc(CO)c3cn[nH]c23)ccc1-c1cccc(F)c1` [Compound 066] and `CCOc1cc(C(=O)N(C)Cc2c(C)nc(CO)c3cn[nH]c23)ccc1-c1cccc(F)c1` [Compound 037] cannot be ordered by pIC50: over 6.00 for the first, over 6.00 for the second.

`CCOc1cc(C(=O)N(C)Cc2cnc(C(C)O)c3cn[nH]c23)cc(Cl)c1-c1cccc(Cl)c1` (stereo not shown) [Compound 166] and `CCOc1cc(C(=O)N(C)Cc2cnc(C(C)O)c3cn[nH]c23)cc(Cl)c1-c1cccc(F)c1` (stereo not shown) [Compound 156] cannot be ordered by pIC50: over 6.00 for the first, over 4.30 for the second.

`CCOc1cc(C(=O)N(C)Cc2cnc(C(C)O)c3cn[nH]c23)cc(F)c1-c1cccs1` (stereo not shown) [Compound 154] and `CCOc1cc(C(=O)N(C)Cc2cnc(C(C)O)c3cn[nH]c23)cc(F)c1-c1cccc(F)c1` (stereo not shown) [Compound 118] cannot be ordered by pIC50: over 6.00 for the first, over 6.00 for the second.

`CCOc1cc(C(=O)N(C)Cc2cnc(C(C)O)c3cn[nH]c23)ccc1-c1ccccc1` (stereo not shown) [Compound 031] and `CCOc1cc(C(=O)N(C)Cc2cnc(C(C)O)c3cn[nH]c23)ccc1-c1ccc(Cl)s1` (stereo not shown) [Compound 163] cannot be ordered by pIC50: over 6.00 for the first, over 6.00 for the second.

`CCOc1cc(C(=O)N(CC)Cc2cnc(CO)c3cn[nH]c23)ccc1-c1cccc(F)c1` [Compound 097] and `CCN(Cc1cnc(CO)c2cn[nH]c12)C(=O)c1ccc(-c2cccc(F)c2)c(OC2CC2)c1` [Compound 100] cannot be ordered by pIC50: over 6.00 for the first, over 6.00 for the second.

`CCOc1cc(C(=O)N(C)Cc2cnc(CO)c3cn[nH]c23)cc(F)c1-c1ccsc1` [Compound 107] and `CCCOc1cc(C(=O)N(C)Cc2cnc(CO)c3cn[nH]c23)cc(F)c1-c1cccc(F)c1` [Compound 138] cannot be ordered by pIC50: over 6.00 for the first, over 6.00 for the second.

`CN(Cc1cnc(CO)c2cn[nH]c12)C(=O)c1cc(F)c(-c2cccc(Cl)c2)c(OC2CC2)c1` [Compound 047] and `CCN(Cc1cnc(CO)c2cn[nH]c12)C(=O)c1cc(F)c(-c2cccc(Cl)c2)c(OC2CC2)c1` [Compound 092] cannot be ordered by pIC50: over 6.00 for the first, over 6.00 for the second.

`CCOc1cc(C(=O)N(C)Cc2c(C)nc(C(C)O)c3cn[nH]c23)ccc1-c1cccc(F)c1` (stereo not shown) [Compound 079] and `CCOc1cc(C(=O)N(C)Cc2c(C)nc(CF)c3cn[nH]c23)ccc1-c1cccc(F)c1` [Compound 173] cannot be ordered by pIC50: over 6.00 for the first, over 6.00 for the second.

`CN(Cc1cc(O)cc2cn[nH]c12)C(=O)c1cc(F)c(-c2cccc(F)c2)c(OC2CC2)c1` [Compound 099] and `CN(Cc1cc(O)cc2cn[nH]c12)C(=O)c1cc(F)c(-c2ccccc2)c(OC2CC2)c1` [Compound 114] cannot be ordered by pIC50: over 6.00 for the first, over 6.00 for the second.

`CCOc1cc(C(=O)N(C)Cc2c(F)c(O)cc3cn[nH]c23)ccc1-c1cccc(F)c1` [Compound 148] and `CCOc1cc(C(=O)N(C)Cc2c(C)c(OC)cc3cn[nH]c23)ccc1-c1cccc(F)c1` [Compound 167] cannot be ordered by pIC50: over 6.00 for the first, over 6.00 for the second.

`CCOc1nc(C(=O)N(C)Cc2cnc(CF)c3cn[nH]c23)ccc1-c1cccc(C(F)(F)F)c1` [Compound 046] and `CCOc1nc(C(=O)N(C)[C@H](C)c2ccc(CF)c3cn[nH]c23)ccc1-c1cccc(F)c1` [Compound 075] cannot be ordered by pIC50: over 6.00 for the first, over 4.30 for the second.

`CN(Cc1cnc(CF)c2cn[nH]c12)C(=O)c1cc(F)c(-c2cc(F)cs2)c(OC2CC2)c1` [Compound 181] and `CN(Cc1cnc(CF)c2cn[nH]c12)C(=O)c1cc(F)c(-c2cccs2)c(OC2CC2)c1` [Compound 105] cannot be ordered by pIC50: over 6.00 for the first, over 6.00 for the second.

`CCOc1cc(C(=O)NCc2cnc(CO)c3cn[nH]c23)ccc1-c1cccc(F)c1` [Compound 150] and `CCOc1cc(C(=O)N(CC)Cc2cnc(C(C)O)c3cn[nH]c23)ccc1-c1cccc(F)c1` (stereo not shown) [Compound 067] cannot be ordered by pIC50: over 6.00 for the first, over 6.00 for the second.

`CCOc1cc(C(=O)N(C)Cc2c(COC)ncc3cn[nH]c23)ccc1-c1cccc(F)c1` [Compound 077] and `CCOc1cc(C(=O)N(C)Cc2c(C3CC3)ncc3cn[nH]c23)ccc1-c1cccc(F)c1` [Compound 011] cannot be ordered by pIC50: over 6.00 for the first, over 6.00 for the second.

`CCOc1cc(C(=O)N(C)Cc2cc(OC(C)=O)cc3cn[nH]c23)ccc1-c1cccc(F)c1` [Compound 007] and `CCOc1cc(C(=O)N(C)[C@@H](C)c2cccc3cn[nH]c23)ccc1-c1cccc(F)c1` [Compound 059] cannot be ordered by pIC50: over 6.00 for the first, over 6.00 for the second.

`CCOc1nc(C(=O)N(C)[C@@H](C)c2cncc3cn[nH]c23)ccc1-c1cccc(F)c1` [Compound 056] and `CCOc1nc(C(=O)N(C)[C@H](C)c2cncc3cn[nH]c23)ccc1-c1cccc(F)c1` [Compound 057] cannot be ordered by pIC50: over 6.00 for the first, over 4.30 for the second.

`CC(C)Oc1cc(C(=O)N(C)Cc2cnc(C(C)O)c3cn[nH]c23)ccc1-c1cccc(Cl)c1` (stereo not shown) [Compound 141] and `CC(O)c1ncc(CN(C)C(=O)c2ccc(-c3cccc(C#N)c3)c(OC3CC3)c2)c2[nH]ncc12` (stereo not shown) [Compound 080] cannot be ordered by pIC50: over 6.00 for the first, over 4.30 for the second.

`CN(Cc1c(CO)ncc2cn[nH]c12)C(=O)c1ccc(-c2cccc(Cl)c2)c(OC2CC2)c1` [Compound 144] and `CN(Cc1c(CO)ncc2cn[nH]c12)C(=O)c1cc(F)c(-c2cccc(Cl)c2)c(OC2CC2)c1` [Compound 145] cannot be ordered by pIC50: over 6.00 for the first, over 6.00 for the second.

`CCOc1cc(C(=O)N(CC)Cc2cnc(C(C)O)c3cn[nH]c23)cc(F)c1-c1cccc(Cl)c1` (stereo not shown) [Compound 172] and `CCN(Cc1cnc(C)c2cn[nH]c12)C(=O)c1cc(F)c(-c2cccc(Cl)c2)c(OC2CC2)c1` [Compound 032] cannot be ordered by pIC50: over 6.00 for the first, over 6.00 for the second.

`CCCOc1cc(C(=O)N(C)Cc2cnc(CO)c3cn[nH]c23)cc(F)c1-c1cc(F)cc(F)c1` [Compound 136] and `CCOc1cc(C(=O)N(C)Cc2cnc(C(C)O)c3cn[nH]c23)cc(F)c1-c1cc(F)cc(Cl)c1` (stereo not shown) [Compound 096] cannot be ordered by pIC50: over 6.00 for the first, over 6.00 for the second.

`Cc1ncc(CN(C)C(=O)c2cc(F)c(-c3cccc(C#N)c3)c(OC3CC3)c2)c2[nH]ncc12` [Compound 065] and `Cc1nc(C)c2cn[nH]c2c1CN(C)C(=O)c1cc(F)c(-c2cccc(Cl)c2)c(OC2CC2)c1` [Compound 120] cannot be ordered by pIC50: over 6.00 for the first, over 6.00 for the second.

`CCOc1cc(C(=O)N(C)Cc2cnc(CF)c3cn[nH]c23)ccc1C#CC1CC1` [Compound 001] and `CN(Cc1cnc(CO)c2cn[nH]c12)C(=O)c1ccc(-c2cccs2)c(OC2CC2)c1` [Compound 085] cannot be ordered by pIC50: over 6.00 for the first, over 5.00 for the second.

`Cc1nc(CO)c2cn[nH]c2c1CN(C)C(=O)c1cc(F)c(-c2cccc(Cl)c2)c(OC2CC2)c1` [Compound 040] and `CN(Cc1cnc(CO)c2cn[nH]c12)C(=O)c1ccc(-c2cccc(Cl)c2)c(OC2CCC2)c1` [Compound 084] cannot be ordered by pIC50: over 6.00 for the first, over 6.00 for the second.

`CN(Cc1cnc(CO)c2cn[nH]c12)C(=O)c1ccc(-c2cccc(Cl)c2)c(OC2COC2)c1` [Compound 108] and `CC(O)c1ncc(CN(C)C(=O)c2ccc(-c3ccc(Cl)s3)c(OC3CC3)c2)c2[nH]ncc12` (stereo not shown) [Compound 168] cannot be ordered by pIC50: over 6.00 for the first, over 6.00 for the second.

`CCOc1cc(C(=O)N(C)Cc2cnc(C(C)O)c3cn[nH]c23)ccc1-c1cc(F)cc(F)c1` (stereo not shown) [Compound 026] and `CCOc1cc(C(=O)N(C)Cc2cnc(C(C)O)c3cn[nH]c23)cc(F)c1-c1cc(F)cc(C#N)c1` (stereo not shown) [Compound 076] cannot be ordered by pIC50: over 6.00 for the first, over 6.00 for the second.

`CC(O)c1ncc(CN(C)C(=O)c2ccc(-c3cccs3)c(OC3CC3)c2)c2[nH]ncc12` (stereo not shown) [Compound 083] was tested, and the pIC50 was over 5.00.
